Source: patent publication US10888544B2, “Methods for treating Gaucher disease” (Genzyme Corporation, priority 2017, dated 2021)

Experiment: Safety evaluation in the renal impairment single dose study (Example 3)
Type: in vivo, human
Method: The safety evaluation was based on the review of the individual values (clinically significant abnormalities) and descriptive statistics (summary tables). All safety analyses were performed using the safety population and based on the on-treatment phase (defined as the start time of investigational medicinal product [IMP] administration up to Day 3 visit). For laboratory, vital sign, and ECG data, the Potentially Clinically Significant Abnormalities (PCSAs) were analyzed using PCSA list (Version 3.0, 24 May 2014). Electrocardiogram parameters were obtained from automatic reading of the 12-lead ECGs and were analyzed as raw parameter value and change from baseline. For vital signs, raw data and changes from baseline were summarized using descriptive statistics by population group and time of measurement. All individual data for biochemistry, hematology, and qualitative urinary tests were listed.
Vital signs and ECG readings were analyzed as raw parameter value and change from baseline.
Adverse events were coded according to the Medical Dictionary for Regulatory Activities (MedDRA, version 19.1). They were classified into pre-defined standard categories according to chronological criteria: • Pretreatment adverse events: AEs that occurred, worsened (according to the Investigator's opinion) or became serious during the pretreatment phase (defined as the time between the signature of the informed consent and IMP administration [excluded]); • Treatment-emergent adverse events (TEAEs): AEs that occurred, worsened or became serious during the on-treatment phase; • Posttreatment adverse events: AEs that occurred, worsened or became serious during the posttreatment phase (defined as starting after the Day 3 visit and ending with EOS).
The number and percentage of subjects with TEAEs were listed by population group, primary system-organ class (SOC), preferred term (PT), and AE diagnosis.

[1] = renal impairment study, single dose

CCCCCCCC(=O)N[C@H](CN1CCCC1)[C@H](O)c1ccc2c(c1)OCCO2 [eliglustat, N-((1R,2R)-1-(2,3-dihydrobenzo[b][1,4]dioxin-6-yl)-1-hydroxy-3-(pyrrolidin-1-yl)propan-2-yl)octanamide]
Total number of mild TEAEs observed (in 1 subject, considered related to study drug: fatigue in a healthy subject): one
Deaths or withdrawals due to AEs [1]: no deaths or withdrawals due to AEs
Serious adverse events [1]: No serious adverse events were reported
Treatment emergent PCSA (laboratory values, vital signs, ECGs) [1]: no treatment emergent PCSA that were clinically relevant
